# Target: truncated form of human NaV 1.8 with full channel activity (Homo sapiens, UniProt Q9Y5Y9)
# Assay: E-VIPR Assay Method B for detecting and measuring Nav inhibition (HEK cells, membrane potential FRET dyes, electrical stimulation)
# Format: cell-based
# Settings: HEK cells expressing human NaV 1.8, Table 20B, read-out: Nav 1.8 MedChem Optical Assay EVIPR Assay Method B HS IC50
# Source text: [formula] where X is the ratio response of the test compound. […] E-VIPR Assay Method B for Detecting and Measuring Nav Inhibition Properties Sodium ion channels are voltage-dependent proteins that can be activated by inducing membrane voltage changes by applying electric fields. The electrical stimulation instrument and methods of use, referred to as E-VIPR, are described in International Publication No. WO 2002/008748 A3 and C.-J. Huang et al. Characterization of voltage-gated sodium channel blockers by electrical stimulation and fluorescence detection of membrane potential, 24 Nature Biotech. 439-46 (2006), both of which are incorporated by reference in their entirety. The instrument comprises a microtiter plate handler, an optical system for exciting the coumarin dye while simultaneously recording the coumarin and oxonol emissions, a waveform generator, a current- or voltage-controlled amplifier, and parallel electrode pairs that are inserted into assay plate wells. Under integrated computer control, this instrument passes user-programmed electrical stimulus protocols to cells within the wells of the microtiter plate. […] Sigma #F4135), 1% NEAA (Non-Essential Amino Acids, Life Tech #11140), 1% HEPES (Life Tech #15630), 1% Pen-Strep (Penicillin-Streptomycin; […] Cells were expanded in vented cap flasks, with 95% humidity and 5% CO2. Reagents and Stock Solutions: • 100 mg/mL Pluronic F-127 (Sigma #P2443), in dry DMSO • Compound Plates: […] 5% KIR 2.1 Bacmam virus (produced in-house), prepared as described in Section 3.3 of J. A. Fornwald et al., Gene Expression in Mammalian Cells Using BacMam, a Modified Baculovirus System, 1350 Methods in Molecular Biology 95-116 (2016), the entire contents of which are incorporated by reference. • 5 mM DiSBAC6(3) (a voltage sensitive oxonol acceptor) (Aurora #00-100-010) in dry DMSO • 5 mM CC2-DMPE (a membrane-bound coumarin phospholipid FRET donor) (Aurora #00-100-008) in dry DMSO • 89 mM VABSC-1 in H2O. […] The solution was made by adding 10% Pluronic F127 stock equal to combined volumes of CC2-DMPE and DiSBAC6(3). The order of preparation was first mix Pluronic and CC2-DMPE, then add DiSBAC6(3), then while vortexing add Bath1/β-Cyclodextrin. […] Assay Protocol: […] Final DMSO concentration for all wells in the assay was 0.625% (0.75% DMSO was supplemented to the Compound Loading Buffer for a final DMSO concentration of 0.625%). 2) Hexyl Dye Solution was prepared. 3) Cell plates were prepared. On the day of the assay, the media was aspirated, and the cells were washed three times with 80 μL of Bath-1 buffer, maintaining 25 μL residual volume in each well. 4) 25 μL per well of Hexyl Dye Solution was dispensed into the cell plates. The cells were incubated for 20 minutes at room temp or ambient conditions in darkness. 5) 80 μL per well of Compound Loading Buffer was dispensed into compound plates. […] The mixture was incubated for 30 minutes at room temp/ambient conditions. […] A pre-stimulus recording was performed for 0.5 seconds to obtain the un-stimulated intensities baseline. The stimulatory waveform was followed by 0.5 seconds of post-stimulation recording to examine the relaxation to the resting state. Data Analysis: Data were analyzed and reported as normalized ratios of emission intensities measured in the 460 nm and 580 nm channels. The response as a function of time was reported as the ratios obtained using the following formula: [formula] The data were further reduced by calculating the initial (Ri) and final (Rf) ratios. These were the average ratio values during part or all of the pre-stimulation period and during sample points during the stimulation period. The fluorescence ratio (Rf/Ri) was then calculated and reported as a function of time. Control responses were obtained by performing assays in the presence of the positive control, and in the absence of pharmacological agents (DMSO vehicle negative control). Responses to the negative (N) and positive (P) controls were calculated as above. […]
# Chain of truncated form of human NaV 1.8 with full channel activity (Q9Y5Y9 126-1722 limits assumed): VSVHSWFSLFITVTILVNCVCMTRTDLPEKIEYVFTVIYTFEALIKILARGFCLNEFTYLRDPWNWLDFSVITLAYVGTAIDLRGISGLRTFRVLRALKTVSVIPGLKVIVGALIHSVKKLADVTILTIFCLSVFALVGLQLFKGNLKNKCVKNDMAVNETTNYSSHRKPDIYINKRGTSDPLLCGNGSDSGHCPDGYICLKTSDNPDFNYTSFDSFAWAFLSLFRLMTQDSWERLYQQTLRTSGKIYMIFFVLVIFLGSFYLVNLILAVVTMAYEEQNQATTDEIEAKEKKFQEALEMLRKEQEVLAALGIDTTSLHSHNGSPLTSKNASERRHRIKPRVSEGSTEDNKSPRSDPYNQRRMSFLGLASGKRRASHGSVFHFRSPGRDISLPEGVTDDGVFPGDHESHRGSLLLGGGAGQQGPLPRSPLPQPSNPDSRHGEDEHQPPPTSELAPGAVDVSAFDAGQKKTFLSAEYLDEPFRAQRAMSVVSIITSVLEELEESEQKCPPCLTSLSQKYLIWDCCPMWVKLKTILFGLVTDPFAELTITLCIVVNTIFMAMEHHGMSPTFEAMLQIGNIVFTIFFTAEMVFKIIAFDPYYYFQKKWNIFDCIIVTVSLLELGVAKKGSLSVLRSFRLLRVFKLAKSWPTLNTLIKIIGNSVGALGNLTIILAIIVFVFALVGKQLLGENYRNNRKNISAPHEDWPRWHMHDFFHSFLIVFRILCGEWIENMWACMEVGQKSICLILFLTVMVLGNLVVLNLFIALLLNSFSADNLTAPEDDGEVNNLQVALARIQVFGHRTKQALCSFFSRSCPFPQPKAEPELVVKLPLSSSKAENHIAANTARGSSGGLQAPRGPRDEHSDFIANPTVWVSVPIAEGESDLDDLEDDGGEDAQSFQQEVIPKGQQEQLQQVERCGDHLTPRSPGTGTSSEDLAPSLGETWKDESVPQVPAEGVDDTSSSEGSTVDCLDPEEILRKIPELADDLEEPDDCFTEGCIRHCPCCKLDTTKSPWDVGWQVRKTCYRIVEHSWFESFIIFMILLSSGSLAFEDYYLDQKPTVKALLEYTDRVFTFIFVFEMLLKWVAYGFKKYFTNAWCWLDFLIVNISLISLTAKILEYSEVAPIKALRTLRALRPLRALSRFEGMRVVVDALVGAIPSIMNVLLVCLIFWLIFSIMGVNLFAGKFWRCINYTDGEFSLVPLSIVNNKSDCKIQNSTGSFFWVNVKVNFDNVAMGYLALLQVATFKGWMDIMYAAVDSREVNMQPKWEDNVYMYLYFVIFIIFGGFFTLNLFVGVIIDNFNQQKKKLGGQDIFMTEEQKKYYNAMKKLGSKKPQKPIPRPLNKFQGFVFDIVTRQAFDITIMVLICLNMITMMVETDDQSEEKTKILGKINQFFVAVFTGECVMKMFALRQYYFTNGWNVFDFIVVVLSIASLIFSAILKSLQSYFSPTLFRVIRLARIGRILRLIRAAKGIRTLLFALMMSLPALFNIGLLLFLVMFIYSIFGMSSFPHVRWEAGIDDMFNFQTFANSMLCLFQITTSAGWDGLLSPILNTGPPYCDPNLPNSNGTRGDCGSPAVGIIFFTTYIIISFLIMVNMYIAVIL
row,SMILES,IC50 [nM]
1,"CC(C)(C)c1ccc(C(=O)Nc2ccnc(C(N)=O)c2)c(Oc2ccc(C(F)(F)F)nc2)c1 [Compound 266, 4-(4-(tert-butyl)-2-((6-(trifluoromethyl)pyridin-3-yl)oxy)benzamido)picolinamide]",17000
2,"NC(=O)c1cccc(NC(=O)c2cc(C(F)(F)F)ccc2Oc2ccccc2OC(F)F)c1 [Compound 285, N-(3-carbamoylphenyl)-2-(2-(difluoromethoxy)phenoxy)-5-(trifluoromethyl)benzamide]",72
3,"NC(=O)c1cccc(NC(=O)c2c(Oc3ccc(F)cc3Cl)cccc2C(F)(F)F)c1 [Compound 260, N-(3-carbamoylphenyl)-2-(2-chloro-4-fluorophenoxy)-6-(trifluoromethyl)benzamide]",166
4,"COc1ccc(NC(=O)c2c(Oc3ccc(F)cc3Cl)cccc2C(F)(F)F)cc1C(N)=O [Compound 253, N-(3-carbamoyl-4-methoxyphenyl)-2-(2-chloro-4-fluorophenoxy)-6-(trifluoromethyl)benzamide]",880
5,"COc1ccc(Oc2cc(C(F)(F)C(F)(F)F)ccc2C(=O)Nc2cccc(C(N)=O)c2)c(OC)c1 [Compound 252, N-(3-carbamoylphenyl)-2-(2,4-dimethoxyphenoxy)-4-(1,1,2,2,2-pentafluoroethyl)benzamide]",36
6,CC(C)(C)c1ccc(C(=O)Nc2cc(C(N)=O)ccn2)c(Oc2ccc(C(F)(F)F)nc2)c1 [Compound 262],> 25000
7,"COc1ccc(NC(=O)c2cc(C(F)(F)F)ccc2Oc2ccc(F)cc2C)cc1C(N)=O [Compound 292, N-(3-carbamoyl-4-methoxyphenyl)-2-(4-fluoro-2-methylphenoxy)-5-(trifluoromethyl)benzamide]",270
8,"NC(=O)c1ccc(NC(=O)c2c(Oc3ccc(F)cc3Cl)cccc2C(F)(F)F)cn1 [Compound 256, 5-[[2-(2-chloro-4-fluoro-phenoxy)-6-(trifluoromethyl)benzoyl]amino]pyridine-2-carboxamide]",550
9,"Cc1cccc(Oc2ccc(F)cc2Cl)c1C(=O)Nc1cccc(C(N)=O)c1 [Compound 275, N-(3-carbamoylphenyl)-2-(2-chloro-4-fluoro-phenoxy)-6-methyl-benzamide]",165
10,"COc1ccccc1Oc1ccc(C(F)(F)F)cc1C(=O)Nc1cccc(C(N)=O)c1 [Compound 287, N-(3-carbamoylphenyl)-2-(2-methoxyphenoxy)-5-(trifluoromethyl)benzamide]",84
11,"NC(=O)c1cccc(NC(=O)c2cc(C(F)(F)F)ccc2Oc2ccccc2)c1 [Compound 277, N-(3-carbamoylphenyl)-2-phenoxy-5-(trifluoromethyl)benzamide]",250
12,"Cc1cc(F)ccc1Oc1ccc(C(F)(F)F)cc1C(=O)Nc1ccc(C)c(C(N)=O)c1 [Compound 294, N-(3-carbamoyl-4-methylphenyl)-2-(4-fluoro-2-methylphenoxy)-5-(trifluoromethyl)benzamide]",37
13,"NC(=O)c1cccc(NC(=O)c2cc(C(F)(F)F)ccc2Oc2ccc(F)cc2)c1 [Compound 276, N-(3-carbamoylphenyl)-2-(4-fluorophenoxy)-5-(trifluoromethyl)benzamide]",98

# Continued, values first:
row,IC50 [nM],SMILES
1,9,"COc1ccc(Oc2cc(Cl)c(Cl)cc2C(=O)Nc2cccc(C(N)=O)c2)c(OC)c1 [Compound 269, N-(3-carbamoylphenyl)-4,5-dichloro-2-(2,4-dimethoxyphenoxy)benzamide]"
2,43,"Cc1cc(Cl)ccc1Oc1ccc(C(F)(F)F)cc1C(=O)Nc1cccc(C(N)=O)c1 [Compound 284, N-(3-carbamoylphenyl)-2-(4-chloro-2-methylphenoxy)-5-(trifluoromethyl)benzamide]"
3,9,"COc1cc(F)ccc1Oc1cc(Cl)c(Cl)cc1C(=O)Nc1cccc(C(N)=O)c1 [Compound 270, N-(3-carbamoylphenyl)-4,5-dichloro-2-(4-fluoro-2-methoxy-phenoxy)benzamide]"
4,36,"NC(=O)c1cccc(NC(=O)c2cc(C(F)(F)F)ccc2Oc2ccc(F)cc2Cl)c1 [Compound 289, N-(3-carbamoylphenyl)-2-(2-chloro-4-fluorophenoxy)-5-(trifluoromethyl)benzamide]"
5,56,"COc1ccc(Oc2ccc(C(F)(F)F)cc2C(=O)Nc2cccc(C(N)=O)c2)c(Cl)c1 [Compound 279, N-(3-carbamoylphenyl)-2-(2-chloro-4-methoxyphenoxy)-5-(trifluoromethyl)benzamide]"
6,65,"COc1ccc(Oc2cc(C(F)(F)C(F)(F)F)ccc2C(=O)Nc2cccc(C(N)=O)c2)cc1F [Compound 250, N-(3-carbamoylphenyl)-2-(3-fluoro-4-methoxyphenoxy)-4-(1,1,2,2,2-pentafluoroethyl)benzamide]"
7,21,"COc1c(F)cccc1Oc1ccc(C(F)(F)F)cc1C(=O)Nc1cccc(C(N)=O)c1 [Compound 278, N-(3-carbamoylphenyl)-2-(3-fluoro-2-methoxyphenoxy)-5-(trifluoromethyl)benzamide]"
8,20,"COc1ccc(Oc2cc(Cl)c(Cl)cc2C(=O)Nc2cccc(C(N)=O)c2)cc1F [Compound 271, N-(3-carbamoylphenyl)-4,5-dichloro-2-(3-fluoro-4-methoxy-phenoxy)benzamide]"

# Source: patent publication US12281057B2 (VERTEX PHARMACEUTICALS INCORPORATED, priority 2017, dated 2025)
